Source: patent US20250255808A1, “NANOGEL PLATFORM TECHNOLOGY FOR LONG-TERM BIOLOGICS THERAPY” (UNIVERSITY OF MARYLAND, BALTIMORE, priority 2022, published 2025)

Columns and labels:
[1] = Structural integrity of released Avastin (far-UV and fluorescence emission scans); type: physicochemical; settings: after release from the nanogels, versus native and denatured controls
Method: Nanogels containing 0, 2 or 5 mol % acrylic acid (AA) loaded with 12.5 or 37.5 wt % Avastin were dispersed in 1 mL PBS (pH 7.4) inside a release device (Float-A-Lyzer® G2, Spectrum Laboratories Inc.) with MWCO 300 kDa at 20 mg/mL. The release device was immersed in 20 mL PBS (pH 7.4) in a 50 mL conical centrifuge tube, and the release was carried out in an incubator shaker at 70 rpm and 37° C. for 100 days. At selected times, the release device was transferred to a new PBS (pH 7.4) release media maintained at 37° C. The amount of Avastin released at each time point was measured using a BCA total protein assay kit (n=4). The fluorescence spectra of released Avastin at late time points were compared to native Avastin® to evaluate the structural integrity of the therapeutic antibody during release.

[2] = system: VEGF expression of hfRPE cells; test: VEGF ELISA on hfRPE cells with and without UV treatment; type: cell-based, human; settings: Avastin 0.25 mg/mL, nanogels 2 mg/mL, 24 hours
Method: To test the ability of Avastin®-loaded nanogels to affect VEGF expression, HfRPE cells were seeded in 96-well plates at a density of 100,000 cells/cm^2. After one day incubation, cell media for all groups was changed to PBS (pH 7.4). Half of all cells were exposed to UV light (1 J/cm) for one hour, and the other half were placed back into the cell incubator. After the 1-hour exposure, PBS (pH 7.4) for all wells were replaced with serum free media (DMEM+pen/strep), then Avastin® at concentration 0.25 mg/mL, and nanogels containing 2 mol % AA with and without 12.5 wt % Avastin® were added into the wells at a concentration of 2 mg/mL. Cells with and without UV treatment were used as controls.
After 24 hours, a VEGF ELISA assay was conducted on all experimental groups.

Bevacizumab [Avastin]
secondary and tertiary protein structures [1]: intact
VEGF expression of hfRPE ([2]; UV-treated cells): reduces the VEGF expression to the level of the cells without UV treatment
VEGF expression of hfRPE ([2]; cells without UV treatment): do not change VEGF expression
